Earlier results on two molecules are cited in PMC5913986, “Repurposing and Reformulation of the Antiparasitic Agent Flubendazole for Treatment of Cryptococcal Meningoencephalitis, a Neglected Fungal Disease” (Antimicrobial Agents and Chemotherapy, 2018).

The data set has as its target T1, porcine tubulin (Sus scrofa, UniProt P02554).
T1 construct: purified porcine brain tubulin; purchased Cytoskeleton, Inc., Denver, CO BK011P; host or cells: porcine brain (tissue-purified)
Also on record: method as in doi:10.2533/chimia.2007.368. The note with it: known tubulin inhibitors; cited from earlier work.

T1 sequence (P02554 whole entry): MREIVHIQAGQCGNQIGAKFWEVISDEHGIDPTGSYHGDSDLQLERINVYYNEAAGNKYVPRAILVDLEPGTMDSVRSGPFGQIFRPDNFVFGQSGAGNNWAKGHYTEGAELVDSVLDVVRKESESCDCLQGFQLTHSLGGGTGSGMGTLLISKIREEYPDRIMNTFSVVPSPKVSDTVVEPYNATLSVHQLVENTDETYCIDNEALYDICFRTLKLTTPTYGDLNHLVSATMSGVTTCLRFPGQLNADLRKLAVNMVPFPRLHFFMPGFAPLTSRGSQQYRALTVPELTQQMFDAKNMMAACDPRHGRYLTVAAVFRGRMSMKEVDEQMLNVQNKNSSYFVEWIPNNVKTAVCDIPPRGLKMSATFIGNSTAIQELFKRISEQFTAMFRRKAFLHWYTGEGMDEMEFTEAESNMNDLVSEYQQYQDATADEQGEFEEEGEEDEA
T1 sequence (P02550 whole entry partner): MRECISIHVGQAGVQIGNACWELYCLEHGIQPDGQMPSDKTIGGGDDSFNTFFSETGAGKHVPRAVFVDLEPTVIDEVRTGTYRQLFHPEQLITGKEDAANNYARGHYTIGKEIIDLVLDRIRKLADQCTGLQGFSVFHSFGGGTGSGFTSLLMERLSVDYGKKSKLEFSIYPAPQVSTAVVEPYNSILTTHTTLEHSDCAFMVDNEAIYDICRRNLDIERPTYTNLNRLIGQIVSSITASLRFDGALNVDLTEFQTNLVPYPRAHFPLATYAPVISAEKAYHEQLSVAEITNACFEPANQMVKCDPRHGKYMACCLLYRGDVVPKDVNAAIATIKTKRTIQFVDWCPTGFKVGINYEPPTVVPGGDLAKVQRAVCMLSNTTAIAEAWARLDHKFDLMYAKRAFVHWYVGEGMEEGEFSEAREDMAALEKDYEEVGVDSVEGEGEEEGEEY

What is called IC50 is the point on the concentration scale where inhibition reaches its midpoint. With `CC(=O)O[C@H]1C(=O)[C@@]2(C)[C@H]([C@H](OC(=O)c3ccccc3)[C@]3(O)C[C@H](OC(=O)[C@H](O)[C@@H](NC(=O)c4ccccc4)c4ccccc4)C(C)=C1C3(C)C)[C@]1(OC(C)=O)CO[C@@H]1C[C@@H]2O` [paclitaxel], the IC50 is 3.9 µM. In the case of `CC[C@]1(O)C[C@@H]2CN(CCc3c([nH]c4ccccc34)[C@@](C(=O)OC)(c3cc4c(cc3OC)N(C)[C@H]3[C@@](O)(C(=O)OC)[C@H](OC(C)=O)[C@]5(CC)C=CCN6CC[C@]43[C@@H]65)C2)C1` [vinblastine], the IC50 is 5.3 µM.
